# Assays:
# [1] = biological target: D(2) dopamine receptor (Rattus norvegicus, UniProt P61169); test: Displacement of [3H]spiperone from rat cloned dopamine D2L receptor expressed in HEK293 cells after 1 hr; format: cell-based
# [2] = biological target: D(3) dopamine receptor (Rattus norvegicus, UniProt P19020); test: Displacement of [3H]spiperone from rat cloned dopamine D3 receptor expressed in HEK293 cells after 1 hr; format: cell-based
# [3] = species on record: Rattus norvegicus; test: Selectivity ratio of Ki for rat cloned dopamine D2L receptor to Ki for rat cloned dopamine D3 receptor
# [4] = biological target: D(3) dopamine receptor (Homo sapiens, UniProt P35462); test: Agonist activity at human dopamine D3 receptor expressed in CHO cells assessed as stimulation of [35S]GTPgammaS binding after 60 mins by scintillation counting analysis; format: functional, cell-based
# Sequence of D(3) dopamine receptor (Homo sapiens, UniProt P35462) (P35462 whole entry): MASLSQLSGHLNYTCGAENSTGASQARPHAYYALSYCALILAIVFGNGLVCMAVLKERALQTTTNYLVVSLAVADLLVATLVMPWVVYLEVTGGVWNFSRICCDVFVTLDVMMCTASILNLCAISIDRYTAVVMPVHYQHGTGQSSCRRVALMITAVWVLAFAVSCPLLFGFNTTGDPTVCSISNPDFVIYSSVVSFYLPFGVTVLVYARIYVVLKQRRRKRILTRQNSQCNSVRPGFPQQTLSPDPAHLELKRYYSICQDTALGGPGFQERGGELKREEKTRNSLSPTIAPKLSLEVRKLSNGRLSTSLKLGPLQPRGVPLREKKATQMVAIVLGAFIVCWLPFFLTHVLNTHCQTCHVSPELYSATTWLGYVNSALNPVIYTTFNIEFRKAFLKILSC
# [5] = biological target: T1, D(2) dopamine receptor (Homo sapiens, UniProt P14416); test: Agonist activity at human dopamine D2L receptor expressed in CHO cells assessed as stimulation of [35S]GTPgammaS binding after 60 mins by scintillation counting analysis relative to dopamine; format: functional, cell-based
# T1 sequence (P14416 whole entry): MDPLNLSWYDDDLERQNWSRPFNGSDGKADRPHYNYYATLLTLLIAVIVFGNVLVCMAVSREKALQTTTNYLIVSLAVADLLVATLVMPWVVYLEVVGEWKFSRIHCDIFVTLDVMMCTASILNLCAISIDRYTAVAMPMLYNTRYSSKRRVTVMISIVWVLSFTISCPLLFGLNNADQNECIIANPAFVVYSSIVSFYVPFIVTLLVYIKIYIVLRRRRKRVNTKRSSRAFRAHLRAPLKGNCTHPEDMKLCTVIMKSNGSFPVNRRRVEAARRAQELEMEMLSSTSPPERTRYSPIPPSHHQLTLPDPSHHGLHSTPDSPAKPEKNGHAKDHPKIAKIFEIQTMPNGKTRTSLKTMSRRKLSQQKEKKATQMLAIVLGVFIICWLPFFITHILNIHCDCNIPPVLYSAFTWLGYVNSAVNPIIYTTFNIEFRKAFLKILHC
# [6] = biological target: T1, D(2) dopamine receptor; test: Agonist activity at human dopamine D2L receptor expressed in CHO cells assessed as stimulation of [35S]GTPgammaS binding after 60 mins by scintillation counting analysis; format: functional, cell-based
# Sequence of D(3) dopamine receptor (Rattus norvegicus, UniProt P19020) (P19020 whole entry): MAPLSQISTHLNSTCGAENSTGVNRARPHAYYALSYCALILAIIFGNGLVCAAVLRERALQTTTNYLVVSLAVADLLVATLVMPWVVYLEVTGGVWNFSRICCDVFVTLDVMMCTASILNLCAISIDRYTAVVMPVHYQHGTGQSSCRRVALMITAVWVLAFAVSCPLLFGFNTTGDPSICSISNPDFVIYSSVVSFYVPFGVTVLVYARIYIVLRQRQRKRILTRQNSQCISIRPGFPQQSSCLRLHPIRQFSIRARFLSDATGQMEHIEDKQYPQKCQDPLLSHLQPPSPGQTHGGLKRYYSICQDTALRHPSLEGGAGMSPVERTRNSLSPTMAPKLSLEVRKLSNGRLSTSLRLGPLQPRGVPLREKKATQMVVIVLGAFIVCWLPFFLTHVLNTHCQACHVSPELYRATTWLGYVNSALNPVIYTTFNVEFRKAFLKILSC
# Sequence of D(2) dopamine receptor (Rattus norvegicus, UniProt P61169) (P61169 whole entry): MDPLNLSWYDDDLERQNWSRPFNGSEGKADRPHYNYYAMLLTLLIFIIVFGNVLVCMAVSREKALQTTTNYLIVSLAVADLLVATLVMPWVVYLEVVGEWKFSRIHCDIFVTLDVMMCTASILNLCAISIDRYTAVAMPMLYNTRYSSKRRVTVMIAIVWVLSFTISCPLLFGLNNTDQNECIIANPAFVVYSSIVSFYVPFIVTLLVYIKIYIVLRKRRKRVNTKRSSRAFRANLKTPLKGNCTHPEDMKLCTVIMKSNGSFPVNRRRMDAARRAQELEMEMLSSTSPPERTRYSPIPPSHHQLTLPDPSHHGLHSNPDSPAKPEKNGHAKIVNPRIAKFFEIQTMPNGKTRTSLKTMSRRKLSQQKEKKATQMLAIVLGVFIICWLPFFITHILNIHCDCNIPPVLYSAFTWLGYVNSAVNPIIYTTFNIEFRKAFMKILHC
Ki [1],Ki [2],Ratio Ki [3],EC50 ([4]; read-out: EC50),Emax [5],EC50 ([6]; cho),EC50 ([4]; cho),EC50 ([6]; read-out: EC50),SMILES
1.28 µM,0.06 µM,21.3,–,–,–,–,–,CCCN(CCN1CCN(c2ccccc2)CC1)C1CCc2cc3[nH]cnc3cc2C1 (centres undefined)
0.127 µM,0.0107 µM,11.9,–,–,–,–,–,CCCN(CCN1CCN(c2ccccc2)CC1)C1CCc2cc3cc[nH]c3cc2C1 (centres undefined)
0.443 µM,0.0197 µM,22.5,–,–,–,–,–,CCCN(CCN1CCN(c2ccccc2OC)CC1)C1CCc2cc3[nH]cnc3cc2C1 (centres undefined)
–,–,8.89,–,–,–,–,–,CCCN(CCN1CCN(c2ccccc2)CC1)C1CCc2cc3[nH]c(N)nc3cc2C1 (centres undefined)
0.52 µM,0.0541 µM,9.61,–,–,–,–,–,CCCN(CCN1CCN(c2ccccc2)CC1)C1CCc2ccc3nc[nH]c3c2C1 (centres undefined)
0.23 µM,0.112 µM,2.05,–,–,–,–,–,CCCN(CCN1CCN(c2ccccc2OC)CC1)C1CCc2cc3[nH]c(=S)[nH]c3cc2C1 (centres undefined)
0.638 µM,0.0222 µM,–,–,–,–,–,–,CCCN(CCN1CCN(c2ccccc2)CC1)C1CCc2ccc(N)cc2C1 (racemic)
2.71 µM,0.0455 µM,–,–,–,–,–,–,CCCN(CCN1CCN(c2ccccc2)CC1)[C@H]1CCc2ccc(N)cc2C1
0.417 µM,0.195 µM,2.14,–,–,–,–,–,CCCN(CCN1CCN(c2ccccc2OC)CC1)C1CCc2cc3[nH]c(=O)[nH]c3cc2C1 (centres undefined)

# The remaining lines, values behind:
SMILES,Ki [1],Ki [2],Ratio Ki [3],EC50 ([4]; read-out: EC50),Emax [5],EC50 ([6]; cho),EC50 ([4]; cho),EC50 ([6]; read-out: EC50)
CCCN(CCN1CCN(c2ccccc2)CC1)C1CCc2ccc(NS(=O)(=O)c3ccc(C(F)(F)F)cc3)cc2C1 (centres undefined),0.0912 µM,0.00864 µM,10.6,–,–,–,–,–
CCCN(CCN1CCN(c2ccccc2)CC1)C1CCc2ccc(NC(=O)c3ccccc3)cc2C1 (centres undefined),0.624 µM,0.109 µM,5.72,–,–,–,–,–
CCCN(CCN1CCN(c2ccccc2)CC1)C1CCc2ccc(NS(=O)(=O)c3ccc(OC)cc3)cc2C1 (racemic),0.0649 µM,0.00222 µM,–,–,–,–,–,–
CCCN(CCN1CCN(C(=O)c2cc3ccccc3[nH]2)CC1)C1CCc2nc(N)sc2C1 (centres undefined),1.07 µM,0.00184 µM,–,0.00026 µM,101%,–,–,–
CCCN(CCN1CCN(c2ccccc2)CC1)[C@H]1CCc2c(cccc2OS(=O)(=O)c2ccc(C)cc2)C1,0.632 µM,0.032 µM,19.8,–,–,–,–,–
CCCN(CCN1CCN(c2ccccc2)CC1)C1CCc2ccc(NC(C)=O)cc2C1 (centres undefined),1.3 µM,0.174 µM,7.44,–,–,–,–,–
CCCN(CCN1CCN(c2ccccc2)CC1)C1CCc2ccc(NS(=O)(=O)c3ccc(C)cc3)cc2C1 (centres undefined),0.0392 µM,0.00369 µM,10.6,–,–,–,–,–
CCCN(CCN1CCN(c2ccccc2)CC1)[C@@H]1CCc2ccc(OS(=O)(=O)c3ccc(OC)cc3)cc2C1,1.08 µM,0.0269 µM,40,–,–,–,–,–
CCCN(CCN1CCN(c2ccccc2)CC1)C1CCc2ccc(NS(=O)(=O)c3ccc(Cl)cc3)cc2C1 (centres undefined),0.0724 µM,0.00413 µM,17.5,–,–,–,–,–
CCCN(CCN1CCN(c2nccc3ccccc23)CC1)[C@H]1CCc2nc(N)sc2C1,–,–,121,–,–,–,–,–
CCCN(CCN1CCN(c2ccccc2)CC1)[C@H]1CCc2c(cccc2OS(=O)(=O)c2ccc(OC)cc2)C1,0.497 µM,0.0176 µM,–,–,–,Not Active,Not Active,–
CCCN(CCN1CCN(c2ccccc2)CC1)[C@@H]1CCc2ccc(NS(=O)(=O)c3ccc(OC)cc3)cc2C1,0.101 µM,0.00232 µM,–,–,–,Not Active,Not Active,–
CCCN(CCN1CCN(c2ccccc2)CC1)[C@@H]1CCc2ccc(N)cc2C1,0.601 µM,0.0202 µM,–,0.0303 µM,36.8%,–,–,0.179 µM

# Reference: ChEMBL document CHEMBL2384946 (Bioorg Med Chem, 2013)
